Measurements published in US7812008B2, “9-substituted tetracyclines” (Wyeth LLC, priority 2005, dated 2010).

Assays:
[1] = test system: S. pneumoniae* GC1894 (Clinical); assay: MIC broth microdilution, S. pneumoniae GC1894 (Clinical); type: cell-based; details: 18-22 hours at 35° C.
Experimental: (§1) Methods for in Vitro Antibacterial Evaluation
(§2) The minimum inhibitory concentration (MIC)
(§3) Antimicrobial susceptibility testing. The in vitro activities of representative examples of antibiotics of the invention are determined by the broth microdilution method as recommended by the National Committee for Clinical Laboratory Standards (NCCLS) (1). Mueller-Hinton II broth (MHBII)(BBL Cockeysville, Md.) is the medium employed in the testing procedures. Microtiter plates containing serial dilutions of each antimicrobial agent are inoculated with each organism to yield the appropriate density (10^5 CFU/ml) in a 100 μl final volume. The plates are incubated for 18-22 hours at 35° C. in ambient air. […] NCCLS. 2000. Methods for Dilution Antimicrobial Susceptibility Tests for Bacteria That Grow Aerobically; Approved Standards: M7-A5, vol. 20. National Committe for Clinical Laboratory Standards, Wayne, Pa.

[2] = test system: H. influenzae<> GC6896 (ATCC Control); assay: MIC broth microdilution, H. influenzae GC6896 (ATCC Control); type: cell-based; details: 18-22 hours at 35° C.
Experimental: as §1, §2, §3

[3] = test system: S. aureus GC6466 (tet(M)); assay: MIC broth microdilution, S. aureus GC6466 (tet(M)); type: cell-based; details: MHBII, 18-22 hours at 35° C.
Experimental: as §1, §2, §3

[4] = test system: E. coli GC4559 (parent GC4560); assay: MIC broth microdilution, E. coli GC4559 (parent GC4560); type: cell-based; details: MHBII, 18-22 hours at 35° C.
Experimental: as §1, §2, §3

[5] = test system: S. pyogenes* GC4563 (Clinical); assay: MIC broth microdilution, S. pyogenes GC4563 (Clinical); type: cell-based; details: 18-22 hours at 35° C.
Experimental: as §1, §2, §3

[6] = test system: E. coli GC2203 (ATCC Control); assay: MIC broth microdilution, E. coli GC2203 (ATCC Control); type: cell-based; details: MHBII, 18-22 hours at 35° C.
Experimental: as §1, §2, §3

[7] = test system: E. faecalis GC2267 (tet(L) + (M) + (S)); assay: MIC broth microdilution, E. faecalis GC2267 (tet(L) + (M) + (S)); type: cell-based; details: MHBII, 18-22 hours at 35° C.
Experimental: as §1, §2, §3

E. coli GC1073 (tet(B)) = assay: MIC broth microdilution, E. coli GC1073 (tet(B)); type: cell-based; details: MHBII, 18-22 hours at 35° C.
Experimental: as §1, §2, §3

[8] = test system: S. aureus GC2216 (ATCC Control); assay: MIC broth microdilution, S. aureus GC2216 (ATCC Control); type: cell-based; details: MHBII, 18-22 hours at 35° C.
Experimental: as §1, §2, §3

[9] = test system: S. aureus GC1131 (Clinical); assay: MIC broth microdilution, S. aureus GC1131 (Clinical); type: cell-based; details: MHBII, 18-22 hours at 35° C.
Experimental: as §1, §2, §3

[10] = test system: S. pneumoniae* GC4465 (Clinical); assay: MIC broth microdilution, S. pneumoniae GC4465 (Clinical); type: cell-based; details: 18-22 hours at 35° C.
Experimental: as §1, §2, §3

[11] = test system: S. aureus GC1079 (tet(K)); assay: MIC broth microdilution, S. aureus GC1079 (tet(K)); type: cell-based; details: MHBII, 18-22 hours at 35° C.
Experimental: as §1, §2, §3

[12] = test system: E. faecalis GC4555 (ATCC Control); assay: MIC broth microdilution, E. faecalis GC4555 (ATCC Control); type: cell-based; details: MHBII, 18-22 hours at 35° C.
Experimental: as §1, §2, §3

E. coli GC2270 (tet(M)) = assay: MIC broth microdilution, E. coli GC2270 (tet(M)); type: cell-based; details: MHBII, 18-22 hours at 35° C.
Experimental: as §1, §2, §3

[13] = test system: E. coli GC4560 (IMP mutant); assay: MIC broth microdilution, E. coli GC4560 (IMP mutant); type: cell-based; details: MHBII, 18-22 hours at 35° C.
Experimental: as §1, §2, §3

[14] = test system: S. aureus GC6467 (tet(M) + (K)); assay: MIC broth microdilution, S. aureus GC6467 (tet(M) + (K)); type: cell-based; details: MHBII, 18-22 hours at 35° C.
Experimental: as §1, §2, §3

[15] = test system: C. albicans GC3066 ATCC (Control); assay: MIC broth microdilution, C. albicans GC3066 ATCC (Control); type: cell-based; details: 18-22 hours at 35° C.
Experimental: as §1, §2, §3

[16] = test system: E. faecalis GC2242 (Van-resistant); assay: MIC broth microdilution, E. faecalis GC2242 (Van-resistant); type: cell-based; details: MHBII, 18-22 hours at 35° C.
Experimental: as §1, §2, §3

[17] = test system: M. catarrhalis* GC6907 (Clinical); assay: MIC broth microdilution, M. catarrhalis GC6907 (Clinical); type: cell-based; details: 18-22 hours at 35° C.
Experimental: as §1, §2, §3

[18] = test system: S. aureus GC4536 (Smith MP -In Vivo); assay: MIC broth microdilution, S. aureus GC4536 (Smith MP -In Vivo); type: cell-based; details: MHBII, 18-22 hours at 35° C.
Experimental: as §1, §2, §3

[19] = test system: Staphylococcal aureus Smith M P; assay: In vivo antibacterial evaluation, acute lethal infection in mice; details: single intraveneous dose; female CD-1 mice; 7 day survival ratios, 3 tests pooled
[20] = test system: Staphylococcal aureus Smith M P; assay: as above; details: single oral dose 30 minutes after intraperitoneal challenge; female CD-1 mice; 7 day survival ratios, 3 tests pooled
Experimental: In Vivo Antibacterial Evaluation: The therapeutic effects of representative examples of the invention are determined against acute lethal infection with Staphylococcal aureus Smith M P, Female mice, strain CD-1 (Charles River Laboratoties), ca. 20 grams, are challenged by an intraperitoneal injection of sufficient bacteria (suspended in broth or hog mucin) to kill non-treated controls within 24-28 hours. Antibacterial agents, contained in 0.5 ml of 0.2% aqueous agar, are administered subcutaneously or orally 30 minutes after injection. When an oral dosing schedule is used, animal are deprived of food for 5 hours before and 2 hours after injection. Five mice are treated at each dose level. The 7 day survival ratios from 3 separate tests are pooled for calculation of median effective dose (ED50).

Row | SMILES | minimum inhibitory concentration (MIC) [1] | minimum inhibitory concentration (MIC) [2] | minimum inhibitory concentration (MIC) [3] | minimum inhibitory concentration (MIC) [4] | minimum inhibitory concentration (MIC) [5] | minimum inhibitory concentration (MIC) [6] | minimum inhibitory concentration (MIC) [7] | minimum inhibitory concentration (MIC) (E. coli GC1073 (tet(B))) | minimum inhibitory concentration (MIC) [8] | minimum inhibitory concentration (MIC) [9] | minimum inhibitory concentration (MIC) [10] | minimum inhibitory concentration (MIC) [11] | minimum inhibitory concentration (MIC) [12] | minimum inhibitory concentration (MIC) (E. coli GC2270 (tet(M))) | minimum inhibitory concentration (MIC) [13] | minimum inhibitory concentration (MIC) [14] | minimum inhibitory concentration (MIC) [15] | minimum inhibitory concentration (MIC) [16] | minimum inhibitory concentration (MIC) [17] | minimum inhibitory concentration (MIC) [18] | further results
1 | CN(C)[C@@H]1C(O)=C(C(N)=O)C(=O)[C@@]2(O)C(O)=C3C(=O)c4c(O)c(NC(=O)CN5CCCCO5)cc(-c5cccs5)c4C[C@H]3C[C@@H]12 [Example 10, (4S,4aS,5aR,12aS)-4-(dimethylamino)-3,10,12,12a-tetrahydroxy-9-[(1,2-oxazinan-2-ylacetyl)amino]-1,11-dioxo-7-thien-2-yl-1,4,4a,5,5a,6,11,12a-octahydrotetracene-2-carboxamide] | 2 | >64 | 2 | >64 | 2 | >64 | 4 | >64 | 4 | 4 | 2 | 4 | 8 | >64 | 4 | 8 | >64 | 4 | 2 | 4 | –
2 | CN(C)[C@@H]1C(O)=C(C(N)=O)C(=O)[C@@]2(O)C(O)=C3C(=O)c4c(O)c(NC(=O)CN5CCCCO5)cc(I)c4C[C@H]3C[C@@H]12 [Example 9, (4S,4aS,5aR,12aS)-4-(dimethylamino)-3,10,12,12a-tetrahydroxy-7-iodo-9[(1,2-oxazinan-2-ylacetyl)amino]-1,11-dioxo-1,4,4a,5,5a,6,11,12a-octahydrotetracene-2-carboxamide] | 0.50 | >64 | 1 | >64 | 1 | >64 | 2 | >64 | 1 | 2 | 1 | 2 | 4 | >64 | 2 | 4 | >64 | 8 | 2 | 4 | –
3 | CN(C)c1cc(NC(=O)CNC(C)(C)C)c(O)c2c1C[C@H]1C[C@H]3[C@H](N(C)C)C(O)=C(C(N)=O)C(=O)[C@@]3(O)C(O)=C1C2=O [GAR-936, reference compound] | – | – | – | – | – | – | – | – | – | – | – | – | – | – | – | – | – | – | – | – | SIV* ED50 [19]: 0.46 mg/kg; SOD* ED50 [20]: 36 mg/kg
